In patent publication US7220425B2, “Method for therapy of liver tumors” (Federalnoe Gosudarstvennoe Unitarnoe Predpriyatie …, priority 2000, dated 2007):

Experiments:
Type in all cases: in vivo, rats
[1] = Distribution of Teraphtalum with the proposed regional method (branch of portal vein of target lobe with occlusion); conditions: for Content of Teraphtalum: proposed method, 0.3 mg (0.6 ml, 0.01% solution), healthy rats
Procedure: (§1) Practically speaking, the method is carried out in the following manner. A median laparotomy is conducted, afferent (a branch of the portal vein and hepatic artery) and efferent (a branch of the hepatic vein) vessels of the target lobe of the liver are isolated. They are taken on tourniquets. A puncture of the branch of the portal vein is made, the preparation is introduced therein, simultaneously stopping the flow of blood: the blood inflow—through branches of the portal vein (proximal to the place of puncture) and the hepatic artery, outflow—through a branch of the hepatic vein. Restoration of the blood flow is accomplished by removing clamps from the vessels 5–15 minutes after administration of the preparation.
(§2) The studies were carried out on mongrel rats weighing 150 g, obtained from the N. V. Blokhin ONTs breeder and contained in the vivarium of that center.
(§3) Teraphtalum in a dose of 60 or 300 μg per rat in the form of 0.6 ml of a 0.01 and 0.05% solution was administered into a branch of the portal vein of a target lobe of the liver.
Accumulation of the preparation in the target lobe (subjected to occlusion), in the intact lobe of the liver (not subjected to occlusion) and also in the blood plasma were studied 5, 35 and 240 minutes after administration of the preparation by the proposed method.

[2] = Effect of length of occlusion of afferent and abducent vessels on accumulation of Teraphtalum; conditions: for Content of Teraphtalum: 35 min after administration
Procedure: as §1, §3
The results of a study of the effect of the length of the period of occlusion of the afferent and abducent vessels of the target lobe of the liver on the accumulation of TP therein are presented in Table 3.

[3] = Distribution of Teraphtalum with the known regional administration (general trunk of portal vein); conditions: known regional method, 5 mg/kg
Procedure: as §2
Teraphtalum (TP) was administered once into the general trunk of the portal vein in a dose of 5 mg/kg (this was 1 mg of TP for a rat weighing 200 g). Accumulation of the preparation in the liver, lungs and its level in blood plasma were evaluated by the spectrophotometric method 5, 35 and 240 minutes after the administration.

- Concentration of TP in target lobe of liver, proposed method versus known regional method ([1]; first minutes after administration, dose in proposed method 16.5 times less): 2 times higher
- Content of Teraphtalum ([1]; intact lobe of liver, 5 min): 7 μg/g of untreated tissue
- Content of Teraphtalum ([1]; intact lobe of liver, 35 min): 5 μg/g of untreated tissue
- Content of Teraphtalum ([1]; intact lobe of liver, 240 min): 9 μg/g of untreated tissue
- Content of Teraphtalum ([1]; plasma, 5 min): 3 μg/g of untreated tissue
- Content of Teraphtalum ([1]; target lobe of liver, 5 min): 30 μg/g of untreated tissue
- Content of Teraphtalum ([1]; target lobe of liver, 35 min): 33 μg/g of untreated tissue
- Content of Teraphtalum ([1]; target lobe of liver, 240 min): 48 μg/g of untreated tissue
- Content of Teraphtalum ([2]; blood plasma, control = selective administration without occlusion): 6 µg/g
- Content of Teraphtalum ([2]; blood plasma, occlusion 5 min, 0.3 mg (0.6 ml of 0.01% solution), proposed method): 5 µg/g
- Content of Teraphtalum ([2]; blood plasma, occlusion 15 min, 0.3 mg (0.6 ml of 0.01% solution), proposed method): 7 µg/g
- Content of TP ([2]; intact lobe of liver as worded in text, without occlusion (control), 30 minutes after administration): 20 µg/g
- Content of Teraphtalum ([2]; intact lobe of liver, occlusion 5 min, 0.3 mg (0.6 ml of 0.01% solution), proposed method): 7 µg/g
- Content of Teraphtalum ([2]; intact lobe of liver, occlusion 15 min, 0.3 mg (0.6 ml of 0.01% solution), proposed method): 6 µg/g
- Content of Teraphtalum ([2]; intact lobe, control = selective administration without occlusion): 17 µg/g
- Content of Teraphtalum ([2]; target lobe of liver, occlusion 5 min, 0.3 mg (0.6 ml of 0.01% solution), proposed method): 35 µg/g
- Content of Teraphtalum ([2]; target lobe of liver, occlusion 15 min, 0.3 mg (0.6 ml of 0.01% solution), proposed method): 35 µg/g
- Content of Teraphtalum ([2]; target lobe, control = selective administration without occlusion): 20 µg/g
- Content of TP ([2]; that (target) lobe as worded in text, without occlusion (control), 30 minutes after administration): 17 µg/g
- Level of TP in the plasma ([2]; without occlusion (control), 30 minutes after administration): 6 μg/g of untreated tissue
- Content of Teraphtalum ([3]; liver, 5 min after administration): 15 μg/g of untreated tissue
- Content of Teraphtalum ([3]; liver, 35 min after administration): 60 μg/g of untreated tissue
- Content of Teraphtalum ([3]; liver, 240 min after administration): 51 μg/g of untreated tissue
- Content of Teraphtalum ([3]; lungs, 5 min after administration): 46 μg/g of untreated tissue
- Content of Teraphtalum ([3]; lungs, 35 min after administration): 28 μg/g of untreated tissue
- Content of Teraphtalum ([3]; lungs, 240 min after administration): 57 μg/g of untreated tissue
- Content of Teraphtalum ([3]; plasma, 5 min after administration): 92.4 μg/g of untreated tissue
- Content of Teraphtalum ([3]; plasma, 35 min after administration): 39.6 μg/g of untreated tissue
- Content of Teraphtalum ([3]; plasma, 240 min after administration): 14.4 μg/g of untreated tissue
Compound: O=C(O)c1cc2c(cc1C(=O)O)C1=Nc3c4cc(C(=O)O)c(C(=O)O)cc4c4[n]3[Co][n]3c(c5cc(C(=O)O)c(C(=O)O)cc5c3=NC3=NC(=N4)c4cc(C(=O)O)c(C(=O)O)cc43)=NC2=N1 [Teraphtalum, cobalt octacarboxy phthalocyanine]
